Assay results as given in patent US5498605A (priority 1994, dated 1996).

Tests used:
[1] = Sedation in rats after i.p. injection; type: in vivo, rat; details: 25 and 50 mg/kg i.p., during one hour
[2] = system: synaptic potentials (fEPSPs) in CA1 region of hippocampal slices; test: Inhibition of synaptic potentials (fEPSPs) in hippocampal slices (species not specified for this result); design: species or system adult rats and gerbils
Protocol: Hippocampal slices were prepared from adult rats (200-300 g) and gerbils as described in Lee et al., Electrophysiology of Isolated Mammalian CNS Preparation (G. A. Kerkut and H. V. Wheat, eds. 1981), pp. 189-211. Field excitatory postsynaptic potentials (fEPSPs) were recorded in the stratum radiatum of the CA1 region in response to stimulation of Schaffer collateral/commisural afferents. Slices were superfused continuously with artificial cerebrospinal fluid (ACSF; described in Lee et al., and fEPSPs were sampled every 15 seconds.
The amplitude of fEPSPs responses was measured on-line and plotted over the time course of each experiment. The magnitude of the inhibitory effect of a compound on fEPSP amplitude was expressed as the percentage inhibition, according to the formula: Percentage inhibition=[(Amplitude in ACSF only--Amplitude in drug)[…]Amplitude in ACSF only]×100.

[3] = target: A2 adenosine receptors (Rattus norvegicus, UniProt P30543); test: Inhibition of [3H]CGS 21680 binding to A2 receptors in rat striatal membranes; design: Rat cerebral cortical membranes and striatal membranes were prepared; from tissue; host or cells: rat striatal membranes; details: rat striatum
Protocol: Membranes (about 80 μg protein, 5 mg wet weight, per tube) were incubated for one hour at 25° C. in a total volume of 1 mL. […] Filtration was carried out using a Brandel Cell Harvester, as above.
(§1) At least seven different concentrations spanning four orders of magnitude, adjusted appropriately for the IC50 of each compound, were used.

[4] = Rectal temperature in rats; type: in vivo, rat; details: Sprague Dawley rats, vehicle caused small rise (approximately 1° C.)
Protocol: Rectal temperature was then recorded.

[5] = system: lipolysis; test: In vivo lipolysis (serum glycerol) in rats; design: species or system rat; details: for lowering of serum glycerol levels: at 60 min
Protocol: Sprague Dawley rats (200-250 g) were fasted overnight. A blood sample was taken from the tail vein 10 sec before the subcutaneous injection of the drug in vehicle (10% DMSO in saline). Additional blood samples were taken from the tail vein at 30, 60 and 90 min post-injection and were kept on ice and centrifuged (1000 Xg) within one-half hour. A perchloric acid extract (3%) of plasma was neutralized with potassium hydroxide, 3-[N-morpholino]propanesulfonic acid, and then assayed for glycerol as described in Eggstein, et al., Methods of Enzymatic Analysis (H. U. Bermeyer ed., 1974), pp. 1825-1831.

[6] = system: lipolysis; test: In vivo lipolysis (serum glycerol) in rats; design: species or system rat; details: post i.p. injection
[7] = target: T1, A1 adenosine receptors (Rattus norvegicus, UniProt P25099); test: Inhibition of [3H]N6-phenylisopropyladenosine binding to A1 adenosine receptors in rat cerebral cortex membranes
T1 construct: Rat cerebral cortical membranes and striatal membranes were prepared; from tissue; host or cells: rat cerebral cortical membranes
T1 sequence (P25099 1-326): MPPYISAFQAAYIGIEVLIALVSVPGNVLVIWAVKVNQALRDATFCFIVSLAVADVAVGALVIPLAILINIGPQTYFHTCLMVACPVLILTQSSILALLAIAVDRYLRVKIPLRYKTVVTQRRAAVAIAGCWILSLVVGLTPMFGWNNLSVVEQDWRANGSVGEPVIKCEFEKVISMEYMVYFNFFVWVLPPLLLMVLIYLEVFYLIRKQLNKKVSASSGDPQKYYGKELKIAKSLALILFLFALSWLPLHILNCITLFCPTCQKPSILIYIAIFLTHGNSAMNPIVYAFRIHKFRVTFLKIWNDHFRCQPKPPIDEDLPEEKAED
Protocol: Bound and free radioligand were separated by addition of 4 mL of a solution containing 50 mM Tris hydrochloride, at pH 7.4 at 5° C., followed by vacuum filtration using a Brandel Cell Harvester (Brandel, Gaithersburg, Md.) and a Whatman GF/B glass fiber filter with additional washes totaling 12 mL of buffer.
as §1

Chain of A2 adenosine receptors (P30543 whole entry): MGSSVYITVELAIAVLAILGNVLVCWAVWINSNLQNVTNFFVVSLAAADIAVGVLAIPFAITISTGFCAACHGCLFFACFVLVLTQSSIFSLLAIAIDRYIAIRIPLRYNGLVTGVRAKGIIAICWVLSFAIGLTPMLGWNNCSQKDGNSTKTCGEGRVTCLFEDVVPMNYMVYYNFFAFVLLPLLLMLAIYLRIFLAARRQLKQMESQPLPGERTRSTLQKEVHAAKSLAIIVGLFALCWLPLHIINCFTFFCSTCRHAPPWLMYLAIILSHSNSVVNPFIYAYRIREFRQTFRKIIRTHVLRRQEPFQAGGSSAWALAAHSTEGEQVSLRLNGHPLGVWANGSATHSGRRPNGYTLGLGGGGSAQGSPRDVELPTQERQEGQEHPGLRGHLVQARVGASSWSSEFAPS

With O=S(=O)(O)c1ccc(CCCNc2ncnc3c2ncn3[C@@H]2O[C@H](CO)[C@@H](O)[C@H]2O)cc1 [3-p-sulfophenylpropyl, N^6-3-p-sulfophenylpropyladenosine] the sedation [1] was “moderate sedation”, the onset of action ([2]; compared with adenosine and CPA) was “slightly slower onset of action in this assay than adenosine itself, but a faster onset of action than CPA” and the IC50 ([2]; hippocampal slices) was 1.7 µM. For the same molecule, the agonist action ([2]; hippocampal slices) was “clearly acts as an agonist”, the “affinity for the A2 striatal receptors (in words)” value [3] was “demonstrated affinity” and the rectal temperature ([4]; i.c.v.) was “caused rectal temperature depression”. The rectal temperature ([4]; i.p.) was “caused rectal temperature depression”, the “lowering of serum glycerol levels” value ([5]; 0.5 mg/kg) was 30% and the “lowering of serum glycerol levels” value ([5]; 1.0 mg/kg) was 34%. For the same molecule, the “effect on serum glycerol levels (inhibition of lipolysis, in words)” value ([5]; doses of 0.1-1.0 mmol/kg) was “lower serum glycerol levels”, the “time of maximum effect on serum glycerol” value [6] was 30 to 60 min and the Ki ([7]; rat brain, vs 1.0 nM [3H]PIA, read-out: A1-Receptor Ki) was 0.61 ± 0.039 µM. The “affinity for the A1 cortical receptors (in words)” value ([7]; rat cerebral cortex) was “demonstrated affinity”.
